Measurements published in the NIST ThermoML archive (doi:10.1021/acs.jced.5b00242).

Experiments:
[1] = xn = mol fraction of the nth substance listed; conditions: 101 kPa, Liquid; for mass density: Vibrating tube method
[2] = refractive index (Na D-line) (dimensionless); xn = mol fraction of the nth substance listed; conditions: 101 kPa, Liquid, Standard Abbe refractometry

CC[n+]1ccn(C)c1.N[C@@H](CO)C(=O)[O-] [3-ethyl-1-methyl-1H-imidazolium L-serinate] + CCn1cc[n+](C)c1.N#C[C-](C#N)C#N
viscosity [mPa·s], [1], Stabinger Viscometer
Conditions	x2 = 0	x2 = 0.2502	x2 = 0.5005	x2 = 0.7497
293.15 K	3796.8	586.84	168.52	42.01
298.15 K	2235.5	384.17	120.68	33.37
303.15 K	1376.2	261.07	88.95	26.98
308.15 K	882.82	183.69	67.28	22.2
313.15 K	588.27	133.41	52.28	18.36
318.15 K	405.12	98.94	41.25	15.72
323.15 K	287.6	75.39	33.28	13.48
328.15 K	209.91	58.75	27.29	11.68
333.15 K	157.29	46.9	22.78	10.07
338.15 K	119.86	37.79	19.18	9.03
343.15 K	93.36	31.01	16.37	8.03
348.15 K	74.03	25.75	14.12	7.19
353.15 K	59.91	21.14	12.31	6.36

Conditions	mass density, x2 = 0 [kg/m3]	mass density, x2 = 0.2502 [kg/m3]	mass density, x2 = 0.5005 [kg/m3]	mass density, x2 = 0.7497 [kg/m3]	refractive index, x2 = 0	refractive index, x2 = 0.2502	refractive index, x2 = 0.5005	refractive index, x2 = 0.7497
[1], 293.15 K	1206.8	1177.2	1141.8	1112.9	–	–	–	–
[1], 298.15 K	1203.7	1173.6	1138.4	1109.3	–	–	–	–
[1], 303.15 K	1200.5	1170.1	1135	1105.8	–	–	–	–
[1], 308.15 K	1197.3	1166.8	1131.7	1102.3	–	–	–	–
[1], 313.15 K	1194	1163.5	1128.4	1098.9	–	–	–	–
[1], 318.15 K	1190.9	1160.5	1125.1	1095.6	–	–	–	–
[1], 323.15 K	1187.8	1157.3	1121.8	1092.2	–	–	–	–
[1], 328.15 K	1184.7	1154	1118.5	1088.9	–	–	–	–
[1], 333.15 K	1181.7	1150.8	1115.1	1085.6	–	–	–	–
[1], 338.15 K	1178.7	1147.6	1111.9	1082.2	–	–	–	–
[1], 343.15 K	1175.7	1144.4	1108.6	1078.9	–	–	–	–
[1], 348.15 K	1172.8	1141.2	1105.2	1075.7	–	–	–	–
[1], 353.15 K	1169.7	1138	1101.8	1072.3	–	–	–	–
[2], 293.15 K	–	–	–	–	1.52699	1.52075	1.51865	1.51552
[2], 298.15 K	–	–	–	–	1.52565	1.51929	1.51718	1.5139
[2], 303.15 K	–	–	–	–	1.52429	1.51784	1.51563	1.51228
[2], 308.15 K	–	–	–	–	1.52294	1.51636	1.51409	1.51064
[2], 313.15 K	–	–	–	–	1.52159	1.51489	1.51254	1.50899
[2], 318.15 K	–	–	–	–	1.52022	1.51343	1.51099	1.50736
[2], 323.15 K	–	–	–	–	1.51887	1.51199	1.50943	1.50574
[2], 328.15 K	–	–	–	–	1.51755	1.51051	1.50784	1.50408
[2], 333.15 K	–	–	–	–	1.5162	1.50902	1.50632	1.50253
[2], 338.15 K	–	–	–	–	1.51486	1.50755	1.50475	1.50093
[2], 343.15 K	–	–	–	–	1.51353	1.50611	1.50324	1.49932
[2], 348.15 K	–	–	–	–	1.5122	1.50459	1.50173	1.49774
[2], 353.15 K	–	–	–	–	1.51084	1.50318	1.50018	1.49615

CCn1cc[n+](C)c1.NCC(=O)[O-] [1-ethyl-3-methylimidazolium ammonioacetate] + CCn1cc[n+](C)c1.N#C[C-](C#N)C#N
viscosity [mPa·s], [1], Stabinger viscometer
Conditions	x2 = 0	x2 = 0.2498	x2 = 0.5001	x2 = 0.7501
293.15 K	240.18	94.03	53.98	29.05
298.15 K	171.97	70.85	42.14	23.45
303.15 K	126.19	54.7	33.55	19.43
308.15 K	95.04	43.19	27.19	16.35
313.15 K	73.5	34.81	22.25	13.9
318.15 K	57.66	28.43	18.69	12.02
323.15 K	46.21	23.59	15.89	10.47
328.15 K	37.66	19.87	13.84	9.21
333.15 K	31.24	16.92	11.88	8.12
338.15 K	26.08	14.58	10.47	7.29
343.15 K	22.11	12.67	9.233	6.55
348.15 K	18.95	11.1	8.191	5.92
353.15 K	16.45	9.77	7.189	5.35

Conditions	mass density, x2 = 0 [kg/m3]	mass density, x2 = 0.2498 [kg/m3]	mass density, x2 = 0.5001 [kg/m3]	mass density, x2 = 0.7501 [kg/m3]	refractive index, x2 = 0	refractive index, x2 = 0.2498	refractive index, x2 = 0.5001	refractive index, x2 = 0.7501
[1], 293.15 K	1164.3	1140.2	1118.4	1101.2	–	–	–	–
[1], 298.15 K	1161.2	1136.9	1115	1097.8	–	–	–	–
[1], 303.15 K	1158.1	1133.7	1111.7	1094.4	–	–	–	–
[1], 308.15 K	1155	1130.5	1108.4	1091	–	–	–	–
[1], 313.15 K	1152	1127.3	1105.2	1087.7	–	–	–	–
[1], 318.15 K	1149	1124.3	1102.1	1084.4	–	–	–	–
[1], 323.15 K	1146	1121.1	1098.9	1081	–	–	–	–
[1], 328.15 K	1143	1118	1095.7	1077.7	–	–	–	–
[1], 333.15 K	1139.9	1114.8	1092.5	1074.5	–	–	–	–
[1], 338.15 K	1136.9	1111.7	1089.3	1071.2	–	–	–	–
[1], 343.15 K	1133.8	1108.6	1086.1	1068	–	–	–	–
[1], 348.15 K	1130.7	1105.5	1082.9	1064.7	–	–	–	–
[1], 353.15 K	1127.4	1102.4	1079.7	1061.5	–	–	–	–
[2], 293.15 K	–	–	–	–	1.52134	1.52032	1.51815	1.51562
[2], 298.15 K	–	–	–	–	1.51997	1.51892	1.51656	1.51399
[2], 303.15 K	–	–	–	–	1.5186	1.51743	1.51505	1.51238
[2], 308.15 K	–	–	–	–	1.51724	1.51596	1.51355	1.5108
[2], 313.15 K	–	–	–	–	1.51585	1.51457	1.51205	1.50922
[2], 318.15 K	–	–	–	–	1.5145	1.51315	1.51057	1.50764
[2], 323.15 K	–	–	–	–	1.51313	1.51173	1.50908	1.50609
[2], 328.15 K	–	–	–	–	1.51179	1.51031	1.5076	1.50449
[2], 333.15 K	–	–	–	–	1.51041	1.5089	1.50613	1.50295
[2], 338.15 K	–	–	–	–	1.50904	1.50751	1.50462	1.50143
[2], 343.15 K	–	–	–	–	1.50769	1.50614	1.50315	1.49987
[2], 348.15 K	–	–	–	–	1.50637	1.50472	1.5017	1.49834
[2], 353.15 K	–	–	–	–	1.50495	1.50334	1.50021	1.49682
